The record followed here is patent US20240174690A1, “ANNULATED 2-AMINO-3-CYANO THIOPHENES AND DERIVATIVES FOR THE TREATMENT OF CANCER” (BOEHRINGER INGELHEIM INTERNATIONAL GMBH, priority 2021, published 2024).

Read-outs that look alike come from different tables or passages of the source.

One assay has as its target KRAS (WT)::SOS1 (Homo sapiens (Human), UniProt P01116, C118S). Put plainly: KRAS::SOS1 AlphaScreen binding assay, KRAS WT. The source says:
This assay can be used to examine the potency with which compounds according to the invention binding to (mutated) KRAS inhibit the protein-protein interaction between SOS1 and (mutated) KRAS e.g., KRAS WT, KRAS G12C, KRAS G12D, KRAS G12V, KRAS G13D. […] Low IC50 values in this assay setting are indicative of strong inhibition of protein-protein interaction between SOS1 and KRAS:
These assays measure the inhibitory effect of compounds on KRAS mutant protein-protein interactions using the Alpha Screen technology by Perkin Elmer.
The following (mutant) enzyme forms of KRAS and interacting proteins are used in these assays at the given concentrations: • KRAS (G12D) 1-169, N-terminal 6His-tag, C-terminal avi-tag (Xtal BioStructures, Inc.); final assay concentration 10 nM and SOS1 564-1049, N-terminal 229 GST-tag, TEV cleavage site (Viva Biotech Ltd); final assay concentration 5 nM; • KRAS (G12C) 1-169, N-terminal 6His-tag for purification, cleaved off, C-terminal avi-tag, biotinylated, mutations: C51S, C80L, C118S (in house); final assay concentration 7.5 nM and SOS1 564-1049, N-terminal 229 GST-tag, TEV cleavage site (Viva Biotech Ltd); final assay concentration 5 nM; • KRAS (G12V) 1-169, N-terminal 6His-tag for purification, cleaved off, C-terminal avi-tag, biotinylated, TEV cleavage site, mutation: C118S, GDP loaded (in house); final assay concentration 10 nM and SOS1 564-1049, N-terminal 229 GST-tag, TEV cleavage site (Viva Biotech Ltd); final assay concentration 10 nM; • KRAS (G13D) 1-169, N-terminal 6His-tag for purification, cleaved off, C-terminal avi-tag, biotinylated, TEV cleavage site, mutation: C118S, GDP loaded (in house); final assay concentration 10 nM and SOS1 564-1049, N-terminal 229 GST-tag, TEV cleavage site (Viva Biotech Ltd); final assay concentration 10 nM; • KRAS (WT) 1-169, N-terminal 6His-tag for purification, cleaved off, C-terminal avi-tag, biotinylated, TEV cleavage site, mutation: C118S, GDP loaded (in house); final assay concentration 10 nM and SOS1 564-1049, N-terminal 229 GST-tag, TEV cleavage site (Viva Biotech Ltd); final assay concentration 10 nM.
Test compounds dissolved in DMSO are dispensed onto assay plates (Proxiplate 384 PLUS, white, PerkinElmer; 6008289) using an Access Labcyte Workstation with the Labcyte Echo 55×. For the chosen highest assay concentration of 100 μM, 150 nL of compound solution are transferred from a 10 mM DMSO compound stock solution. A series of eleven fivefold dilutions per compound are transferred to the assay plate, compound dilutions are tested in duplicates. DMSO are added as backfill to a total volume of 150 nL.
The assays run on a fully automated robotic system in a darkened room below 100 Lux. To 150 nl of compound dilution 10 μl of a mix including KRAS mutant protein, SOS1 (final assay concentrations see above) and GDP nucleotide (Sigma G7127; final assay concentration 10 μM) in assay buffer (1×PBS, 0.1% BSA, 0.05% Tween 20) are added into columns 1-24.
After 30 minutes incubation time 5 μl of Alpha Screen bead mix in assay buffer are added into columns 1-23. Bead mix consists of AlphaLISA Glutathione Acceptor Beads (PerkinElmer, Cat No AL109) and AlphaScreen Streptavidin Donor Beads (PerkinElmer Cat No 6760002) in assay buffer at a final assay concentration of 10 μg/ml each.
Plates are kept at room temperature in a darkened incubator. After an additional 60 minutes incubation time the signal is measured in a PerkinElmer Envision HTS Multilabel Reader using the AlphaScreen specs from PerkinElmer.
Each plate contains up to 16 wells of a negative control depending on the dilution procedure (platewise or serial) (DMSO instead of test compound; with KRAS mutant::SOS1 GDP mix and bead mix; column 23) and 16 wells of a positive control (DMSO instead of test compound; with KRAS mutant::SOS1 GDP mix w/o bead mix; column 24).
As internal control known inhibitors of KRAS mutant::SOS1 interaction can be measured on each compound plate. […]
Background: Alpha assays give light when donor and acceptor beads are brought close together.

For the next assay, the system named is GP2D cells. Put plainly: GP2D proliferation assay (120 h) (colorectal cancer, G12D). Type of assay: cell-based. On the procedure:
GP2D Proliferation Assay (120 h) (Colorectal Cancer, G12D)
GP2D cells (ATCC No. CRL-5807) are dispensed into white 384-well plates, flat and white bottom (Perkin Elmer, 6007680) at a density of 500 cells per well in 40 μl DMEM (Sigma, D6429)+1×GlutaMAX (Gibco, 35050038)+10% FCS (fetal calf serum). […] Compounds (10 mM stock in DMSO) are added at logarithmic dose series using the HP Digital Dispenser D300 (Tecan), including DMSO controls and normalizing for added DMSO. For the TO time point measurement, untreated cells are analyzed at the time of compound addition. Plates are incubated for 120 h, and cell viability is measured using CellTiter-Glo luminescent cell viability reagent (Promega product code G7570). Viability (stated as percent of control) is defined as relative luminescence units RLU of each well divided by the RLU of cells in DMSO controls. IC50 values are determined from viability measurements by non-linear regression using a four parameter model.

For a further assay, the system named is MKN1 cells. Put plainly: MKN1 CTG proliferation assay (120 h) (gastric cancer, wt amplified). Type of assay: cell-based. The settings on record: Homo sapiens. As for the experimental part: MKN1 CTG Proliferation Assay (120 h) (Gastric Cancer, Wt Amplified)
MKN1 cells (JCRB0252) are dispensed into white 384-well plates, flat and white bottom (Corning Costar, PNr.: 3570) at a density of 400 cells per well in 50 μL RPMI 1640 (PAN-Biotech, PNr.: P04-18047)+10% FCS (HyClone, PNr.: SH30084.03) (assay 1) or into white 384-well plates, flat and white bottom (Perkin Elmer, 6007680) at a density of 500 cells per well in 40 μl RPMI (Gibco, PNr.: 21875034)+10% FCS (HyClone, PNr.: SH30084.03) (assay 2) or into black 384-well plates, flat and clear bottom (Greiner, PNr. 781091) at a density of 200 cells per well in 60 μl RPMI-1640 (Gibco #A10491)+10% FCS (HyClone, PNr.: SH30084.03)+PenStrep (Gibco, PNr.15140-122) (assay 3). […] Compounds (10 mM stock in DMSO) are added at logarithmic dose series using the HP Digital Dispenser D300 (Tecan) (assay 1+2) or the ECHO acoustic liquid handler system (Beckman Coulter) (assay 3), including DMSO controls and normalizing for added DMSO. Plates are incubated for 120 h, and cell viability is measured using CellTiter-Glo luminescent cell viability reagent (Promega product code G7570). Viability (stated as percent of control) is defined as relative luminescence units RLU of each well divided by the RLU of cells in DMSO controls. IC50 values are determined from viability measurements by non-linear regression using a four-parameter model.

Where [1] appears, read: MKN-1, assay 2, CTG 120 h, read-out: MKN1 (assay 2) IC50.
[2] abbreviates: MKN-1, assay 3, CTG 120 h, read-out: MKN1 (assay 3) IC50.

KRAS (WT)::SOS1, sequence (P01116 other isoform, or with tags, fused parts or gaps C118S): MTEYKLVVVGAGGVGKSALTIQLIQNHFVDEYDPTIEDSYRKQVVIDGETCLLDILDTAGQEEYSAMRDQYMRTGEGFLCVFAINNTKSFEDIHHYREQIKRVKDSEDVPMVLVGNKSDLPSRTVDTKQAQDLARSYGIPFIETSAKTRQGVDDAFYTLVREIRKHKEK

With `C[C@H](Oc1cc(N2CCNC3(CC3)C2)nc(-c2onc3c2CCC[C@@]32CCCc3sc(N)c(C#N)c32)n1)[C@@H]1CCCN1C` [I-5], the results for the half-maximal inhibitory concentration (IC50) on KRAS (WT)::SOS1, in the assay on GP2D cells and with MKN1 cells (setting [1]) were 4 nM, 1 nM and 499 nM, respectively.
Turning to `C[C@H](Oc1cc(N2CC[C@H](N(C)C)C2)nc(-c2noc3c2CCC[C@@]32CCCc3sc(N)c(C#N)c32)n1)[C@@H]1CCCN1C` [II-49], the half-inhibitory concentration (IC50) on KRAS (WT)::SOS1 is 20 nM; in the assay with GP2D cells, 6 nM; in the assay on MKN1 cells (setting [1]) it was more than 3000 nM; in the assay on MKN1 cells (setting [2]), 501 nM.
Turning to `C[C@H](Oc1cc(-n2cc3c(n2)CCNC3)nc(-c2noc3c2CCC[C@@]32CCCc3sc(N)c(C#N)c32)n1)[C@@H]1CCCN1C` [II-53], the 50% inhibitory concentration (IC50) on KRAS (WT)::SOS1 was 5 nM; in the assay on GP2D cells, 29 nM; with MKN1 cells (setting [2]), 994 nM.
Turning to `C[C@H](Oc1cc(N2CCN(C)CC2)nc(-c2noc3c2CCC[C@@]32CCCc3sc(N)c(C#N)c32)n1)[C@@H]1CCCN1C` [II-55], the values for the IC50 at KRAS (WT)::SOS1, in the assay on GP2D cells and with MKN1 cells (setting [2]) were 10 nM, 46 nM and 876 nM, respectively.
For `C[C@H](Oc1cc(-n2ccnc2)nc(-c2noc3c2CCC[C@@]32CCCc3sc(N)c(C#N)c32)n1)[C@@H]1CCCN1C` [II-69], the values for the IC50 on KRAS (WT)::SOS1 and with GP2D cells were 3 nM and 585 nM, respectively.
As for `C[C@H](Oc1cc(N2CCOC3(COC3)C2)nc(-c2noc3c2CCC[C@@]32CCCc3sc(N)c(C#N)c32)n1)[C@@H]1CCCN1C` [II-77], the half-maximal inhibitory concentration (IC50) worked out at 4 nM on KRAS (WT)::SOS1, 37 nM in the assay with GP2D cells and 18 nM in the assay on MKN1 cells (setting [2]).
For `C[C@H](Oc1cc(-c2cnn(C)n2)nc(-c2noc3c2CCC[C@@]32CCCc3sc(N)c(C#N)c32)n1)[C@@H]1CCCN1C` [II-86], the half-inhibitory concentration (IC50) came out at 5 nM at KRAS (WT)::SOS1 and 824 nM with GP2D cells.
Turning to `C[C@H](Oc1cc([C@@H]2CCOC2)nc(-c2noc3c2CCC[C@@]32CCCc3sc(N)c(C#N)c32)n1)[C@@H]1CCCN1C` [II-94], the IC50 at KRAS (WT)::SOS1 is 3 nM; in the assay on GP2D cells it was 26 nM; in the assay on MKN1 cells (MKN-1, assay 1, CTG 120 h, read-out: MKN1 (assay 1) IC50), 32 nM; in the assay with MKN1 cells (setting [2]), 51 nM.
`C[C@H](Oc1cc(-c2ccn(C)n2)nc(-c2noc3c2CCC[C@@]32CCCc3sc(N)c(C#N)c32)n1)[C@@H]1CCCN1C` [II-96]: the IC50 at KRAS (WT)::SOS1 amounted to 5 nM; with GP2D cells it was 809 nM.
The like results for `C[C@H](Oc1cc(-c2ccn3ncnc3c2)nc(-c2noc3c2CCC[C@@]32CCCc3sc(N)c(C#N)c32)n1)[C@@H]1CCCN1C` [II-104] were, in that order, 4 nM and 510 nM.
With `C[C@H](Oc1cc(-n2cncc3ccnc2-3)nc(-c2noc3c2CCC[C@@]32CCCc3sc(N)c(C#N)c32)n1)[C@@H]1CCCN1C` [II-105], the IC50 is 4 nM at KRAS (WT)::SOS1, 463 nM in the assay on GP2D cells and 426 nM with MKN1 cells (setting [2]).
For the compound `C[C@H](Oc1cc(-c2cnsc2)nc(-c2noc3c2CCC[C@@]32CCCc3sc(N)c(C#N)c32)n1)[C@@H]1CCCN1C` [II-111], the IC50 on KRAS (WT)::SOS1 worked out at 4 nM; with GP2D cells, 443 nM.

As a reminder, the IC50 is the concentration at which inhibition is half-maximal.
